In ChEMBL document CHEMBL1145876, “New arylpiperazine derivatives with high affinity for alpha1A, D2 and 5-HT2A receptors” (Bioorg Med Chem Lett, 2003):

Tests used:
D(2) dopamine receptor = D(2) dopamine receptor (Rattus norvegicus, UniProt P61169); experiment: Binding affinity towards Dopamine receptor D2 in rat […] using [3H]spiperone; assay type: tissue-based
[1] = molecular target: 5-hydroxytryptamine receptor 2A (Rattus norvegicus, UniProt P14842); experiment: Binding affinity towards 5-hydroxytryptamine 2A receptor using [3H]ketanserin
Chain of 5-hydroxytryptamine receptor 2A (P14842 whole entry): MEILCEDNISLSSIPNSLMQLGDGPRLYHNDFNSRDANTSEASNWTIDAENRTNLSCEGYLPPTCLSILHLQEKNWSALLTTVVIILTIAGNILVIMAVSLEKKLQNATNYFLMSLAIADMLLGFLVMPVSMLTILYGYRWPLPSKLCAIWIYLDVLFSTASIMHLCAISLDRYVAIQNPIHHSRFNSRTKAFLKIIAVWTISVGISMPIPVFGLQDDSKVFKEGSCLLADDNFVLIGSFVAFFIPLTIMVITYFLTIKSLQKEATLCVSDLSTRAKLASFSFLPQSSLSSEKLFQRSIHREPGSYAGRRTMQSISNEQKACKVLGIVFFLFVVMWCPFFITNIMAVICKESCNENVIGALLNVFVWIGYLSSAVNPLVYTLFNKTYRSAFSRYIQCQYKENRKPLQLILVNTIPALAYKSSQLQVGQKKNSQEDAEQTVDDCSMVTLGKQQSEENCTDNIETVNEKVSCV

Chain of D(2) dopamine receptor (P61169 whole entry): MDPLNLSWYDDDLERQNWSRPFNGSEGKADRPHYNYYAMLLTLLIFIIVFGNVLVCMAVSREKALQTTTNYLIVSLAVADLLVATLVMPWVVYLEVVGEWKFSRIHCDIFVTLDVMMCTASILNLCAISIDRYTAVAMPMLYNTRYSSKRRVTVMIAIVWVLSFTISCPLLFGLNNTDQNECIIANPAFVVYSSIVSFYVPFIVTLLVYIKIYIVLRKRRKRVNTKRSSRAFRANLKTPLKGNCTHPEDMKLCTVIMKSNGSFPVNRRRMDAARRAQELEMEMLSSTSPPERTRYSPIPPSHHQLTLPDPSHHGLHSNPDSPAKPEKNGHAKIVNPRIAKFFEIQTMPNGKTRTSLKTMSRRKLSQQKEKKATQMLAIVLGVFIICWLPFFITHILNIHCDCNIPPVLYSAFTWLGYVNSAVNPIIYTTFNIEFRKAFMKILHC

SMILES | Ki (D(2) dopamine receptor) [nM] | Ki [1] [nM]
Cc1cc(=O)oc2cc(OCCCN3CCN(c4ncccn4)CC3)ccc12 | 324 | 2340
COc1cc(=O)oc2cc(OCCCN3CCN(c4ncccn4)CC3)ccc12 | 47.9 | 138
COc1cc(=O)oc2cc(OCCCN3CCN(c4ccccc4)CC3)ccc12 | 562 | 1950
COc1cc(=O)oc2cc(OCCCN3CCN(c4ccccn4)CC3)ccc12 | 129 | 537
Cc1cc(=O)oc2cc(OCCCN3CCN(c4ccccn4)CC3)ccc12 | 81.3 | 1070

Stronger by Ki (D(2) dopamine receptor), values ahead:

Ki (D(2) dopamine receptor) [nM] | Ki [1] [nM] | SMILES
45.7 | 933 | Cc1cc(=O)oc2cc(OCCCN3CCN(c4ccccc4)CC3)ccc12
17.8 | 3090 | COc1ccccc1N1CCN(CCCOc2ccc3c(OC)cc(=O)oc3c2)CC1
11.7 | 174 | COc1ccccc1N1CCN(CCCOc2ccc3c(C)cc(=O)oc3c2)CC1
